Assay results from patent US10981932B2, “Macrocyclic indole derivatives” (Bayer Aktiengesellschaft, priority 2016, dated 2021).
Where “and” joins values, the source holds several entries; their conditions need not be identical. Identical values can stand only once. Counter-ions that a name gives are not always drawn. Like-named read-outs stand apart in the source and are kept apart here.

Columns and labels:
SUDHL10 = experiment: Induction of caspase-3/7 activity (Caspase-Glo 3/7), SUDHL10; assay type: cell-based; conditions: caspase-3/7 induction, SUDHL10 cells, 3 h treatment, median
Outline: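 Caspase-Glo 3/7 luminescence measured after 3 h compound exposure at 37 °C in SUDHL10 and SUDHL5 cells. EC50 values come from background-corrected signals, with curve bottom set to 1 and plateau set to maximal induction by the reference compound.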

BCL-2 = molecular target: T1, BCL-2 (Homo sapiens, UniProt P10415); experiment: Protein-protein interaction assay BCL-2/Bad BH3 peptide (BCL-2 assay), TR-FRET; assay type: binding; conditions: His-BCL-2 / Bad BH3-derived peptide, median
T1 construct: BCL-2 (amino acids 1-211, C-terminal fused to a hexahistidine (6×His) tag); purchased BPS Bioscience (San Diego, Calif., USA); host or cells: E. coli
T1 sequence (P10415 1-211): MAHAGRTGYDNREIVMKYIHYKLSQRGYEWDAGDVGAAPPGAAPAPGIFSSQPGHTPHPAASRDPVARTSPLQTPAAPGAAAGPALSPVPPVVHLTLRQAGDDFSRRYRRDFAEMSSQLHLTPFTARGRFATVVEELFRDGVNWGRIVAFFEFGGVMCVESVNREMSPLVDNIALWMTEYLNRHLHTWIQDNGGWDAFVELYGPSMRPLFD
Experimental: Protein-Protein Interaction Assay: BCL-2/Bad BH3 Peptide (BCL-2 Assay)
The dose-dependent inhibition by the compounds described in this invention of the interaction between BCL-2 and the BH3 domain of Bad (both human) was determined using a steady state binding competition assay with time-resolved fluorescence energy transfer (TR-FRET) readout. For that purpose BCL-2 (amino acids 1-211, C-terminal fused to a hexahistidine (6×His) tag and a synthetic Bad BH3-derived peptide of sequence Biotin-PEG2-PEG2-NLWAAQRYGRELRR-Nle-SDEFVDSFKK-amide (SEQ ID NO: 2) served as protein receptor and tracer ligand respectively. The recombinant BCL-2 protein (expressed in E. coli) was purchased from BPS Bioscience (San Diego, Calif., USA). The Bad BH3-derived peptide can be obtained from e.g. Biosyntan (Berlin, Germany).
In the assay 11 different concentrations of each compound (0.1 nM, 0.33 nM, 1.1 nM, 3.8 nM. 13 nM, 44 nM, 0.15 μM, 0.51 μM, 1.7 μM, 5.9 μM and 20 μM) were typically measured as duplicates in the same microtiter plate. For that, 100-fold concentrated DMSO solutions were prepared by serial dilutions (1:3.4) of a 2 mM stock solution in a clear, 384-well microtiter plate (Greiner Bio-One, Frickenhausen, Germany). From there, 50 nl were transferred in a dark test plate (Greiner Bio-One. Frickenhausen, Germany). The assay was initiated by addition of 2 μl of a 2,5-fold concentrated His-BCL-2 solution (usually for a 1 nM end concentration in 5 μl reaction volume) in aqueous assay buffer [50 mM Tris/HCl pH 7, 100 mM sodium chloride (NaCl), 50 mM potassium fluoride (KF), 0.005% Tween-20, 2 mM DTT, 0.1% bovine gamma globulin (BGG)] to the compounds in the assay plate. This was followed by a 10-minute incubation step at 22° C. for pre-equilibration of the putative complex between His-BCL-2 and the compounds.
The mixture was incubated in the dark for one hour at 22° C. and then overnight at 4° C. The formation of BCL-2/Bad complexes was determined by measuring the resonance energy transfer of the anti-His-Eu-cryptate antibody to the streptavidin-XL665 present in the reaction. For that purpose, the fluorescence emission at 620 nm and 665 nm after excitation at 330-350 nm was measured in a TR-FRET measuring instrument, for instance a Rubystar or a Pherastar (both from BMG Lab Technologies. Offenburg, Germany) or a Viewlux (Perkin-Elmer). The ratio of the emission at 665 nm and at 622 nm was used as indicator of the amount of BCL-2/Bad complexes present.
The resulting data (ratio) were normalized, taking 0% inhibition as the mean value of control measurements (usually 32 data points) where all reagents were included. In this case 50 nl DMSO were used instead of compounds. A 100% inhibition corresponded to the mean value of control measurements (usually 32 data points) where all reagents except BCL-2 were included. IC50 values were determined by regression analysis based on a 4 parameter equation (minimum, maximum, IC50, Hill; Y=Max+(Min−Max)/(1+(X/IC50)^Hill) using the Screener Software (Genedata).

A2780 = experiment: Anti-proliferative effect (CellTiter-Glo, 72 h), A2780; assay type: cell-based; conditions: A2780 cells, median, read-out: IC50 antiproliferation assay A2780 [M] (median)
Outline: (§1)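 CellTiter-Glo luminescence readout of viability, taken on a time-zero plate at day 0 and on treated plates after 72 h incubation at 37 °C in a humidified incubator. Reagent incubation 10 min before reading.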

OPM2 = experiment: Anti-proliferative effect (CellTiter-Glo, 72 h), OPM2; assay type: cell-based; conditions: OPM2 cells, median, read-out: IC50 antiproliferation assay OPM2 [M] (median)
Outline: as §1

MV-4-11 = experiment: Anti-proliferative effect (CellTiter-Glo, 72 h), MV-4-11; assay type: cell-based; conditions: Homo sapiens, MV4-11, 72 h, MV-4-11 cells, median, read-out: IC50 antiproliferation assay MV-4-11 [M] (median)
Outline: as §1

Structure (SMILES)	EC50 (SUDHL10; Homo sapiens, SU-DHL10, 3 h) [µM]	IC50 (BCL-2) [µM]	IC50 (A2780; Homo sapiens, A2780, 72 h) [M]	IC50 (OPM2; Homo sapiens, OPM-2, 72 h) [M]	EC50 (SUDHL10) [µM]	IC50 (OPM2) [M]	IC50 (A2780)	IC50 (MV-4-11) [M]
Cc1c2c(nn1C)COCCCCn1c(C(=O)O)c(CCCOc3cccc4ccccc34)c3cccc-2c31 (racemic) [Example 1-36, (rac)-2,3-dimethyl-7-[3-(naphthalen-1-yloxy)propyl]-2,10,11,12,13,15-hexahydropyrazolo[4′,3′:9,10][1,6]oxazacycloundecino[8,7,6-hi]indole-8-carboxylic Acid]	7.51	> 20	> 3.3e-05	1.01e-05				
Cc1nn(C)c2c1-c1cccc3c(CCCOc4cccc5ccccc45)c(C(=O)O)n(c13)CCCCOCC2 (racemic) [Example 017, (rac)-1,3-dimethyl-7-[3-(1-naphthyloxy)propyl]-10,11,12,13,15,16-hexahydro-1H-pyrazolo[4′,3′:9,10][1,6]oxazacyclododecino[8,7,6-hi]indole-8-carboxylic Acid]	> 33	> 20	> 3.3e-05	2.78e-05	31.9	> 3.3e-05		
CC(C)c1c2c(nn1C)CN(C)CCCn1c(C(=O)O)c(CCCOc3cccc4ccccc34)c3cccc-2c31 (racemic) [Example 113, (rac)-7,10-dimethyl-1-[3-(naphthalen-1-yloxy)propyl]-11-(propan-2-yl)-4,5,6,7,8,10-hexahydropyrazolo[3′,4′:7,8][1,5]diazecino[9,10,1-hi]indole-2-carboxylic Acid]		> 20	8.81e-06	1.42e-05				
CCc1c2c(nn1C)CN(C)CCCn1c(C(=O)O)c(CCCOc3cccc4ccccc34)c3cccc-2c31 (racemic) [Example 141, (rac)-11-ethyl-7,10-dimethyl-1-[3-(1-naphthyloxy)propyl]-4,5,6,7,8,10-hexahydropyrazolo[3′,4′:7,8][1,5]diazecino[9,10,1-hi]indole-2-carboxylic Acid]	7.3	> 20	1.48e-05	9.12e-06				
CCc1c2c(nn1C)CN(C)CCCn1c(C(=O)O)c(CCCOc3cccc4ccccc34)c3ccc(C)c-2c31 (racemic) [Example 144, (rac)-11-ethyl-7,10,12-trimethyl-1-[3-(1-naphthyloxy)propyl]-4,5,6,7,8,10-hexahydropyrazolo[3′,4′:7,8][1,5]diazecino[9,10,1-hi]indole-2-carboxylic Acid]	3.91	> 20	1.17e-05	5.52e-06				
CCc1c2c(nn1C)COCCCCn1c(C(=O)O)c(CCCOc3cccc4ccccc34)c3ccc(C)c-2c31 (racemic) [Example 153, (rac)-3-Ethyl-2,4-dimethyl-7-[3-(1-naphthyloxy)propyl]-2,10,11,12,13,15-hexahydropyrazolo[4′,3′:9,10][1,6]oxazacycloundecino[8,7,6-hi]indole-8-carboxylic Acid]	5.12	> 20	1.52e-05	8.4e-06				
CC(C)OCc1nn(C)c2c1-c1cccc3c(CCCOc4cccc5ccccc45)c(C(=O)O)n(c13)CCCCN(C)C2 (single isomer, unassigned) [Example 1-74, 1,14-dimethyl-7-[3-(naphthalen-1-yloxy)propyl]-3-[(propan-2-yloxy)methyl]-10,11,12,13,14,15-hexahydro-1H-pyrazolo[3′,4′:8,9][1,6]diazacycloundecino[10,11,1-hi]indole-8-carboxylic Acid]	20.3	> 20	1.91e-05	1.6e-05				
Cn1nc(COc2ccc(N3CCN(C(=O)C4CC4)CC3)cc2)c2c1COCCCCn1c(C(=O)O)c(CCCOc3cccc4ccccc34)c3cccc-2c31 (single isomer, unassigned; enantiomer 1) [Example 1-22, 3-({4-[4-(cyclopropylcarbonyl)piperazin-1-yl]phenoxy}methyl)-1-methyl-7-[3-(naphthalen-1-yloxy)propyl]-1,10,11,12,13,15-hexahydropyrazolo[4′,3′:9,10][1,6]oxazacycloundecino[8,7,6-hi]indole-8-carboxylic Acid (Enantiomer 1)]		> 20	1.83e-05		2.21	2.56e-06		
COCCn1nc2c(c1CN1CCOCC1)-c1cccc3c(CCCOc4cccc5ccccc45)c(C(=O)O)n(c13)CCCN(C)C2 (single isomer, unassigned; enantiomer 1) [Example 057, 10-(2-methoxyethyl)-7-methyl-11-(morpholin-4-ylmethyl)-1-[3-(naphthalen-1-yloxy)propyl]-4,5,6,7,8,10-hexahydropyrazolo[3′,4′:7,8][1,5]diazecino[9,10,1-hi]indole-2-carboxylic Acid (Enantiomer 1)]	24.7	> 20	3.01e-05	> 3.3e-05				
Cc1c2c(nn1CCN1CCOCC1)CN(C)CCCn1c(C(=O)O)c(CCCOc3cccc4ccccc34)c3cccc-2c31 (single isomer, unassigned; enantiomer 1) [Example 060, 7,11-dimethyl-10-[2-(morpholin-4-yl)ethyl]-1-[3-(naphthalen-1-yloxy)propyl]-4,5,6,7,8,10-hexahydropyrazolo[3′,4′:7,8][1,5]diazecino[9,10,1-hi]indole-2-carboxylic Acid (Enantiomer 1)]		> 20	2.21e-05	1.27e-05	8.54			
COCCn1nc2c(c1C)-c1cccc3c(CCCOc4cccc5ccccc45)c(C(=O)O)n(c13)CCCCOC2 (single isomer, unassigned; enantiomer 1) [Example 107, 2-(2-methoxyethyl)-3-methyl-7-[3-(naphthalen-1-yloxy)propyl]-2,10,11,12,13,15-hexahydropyrazolo[4′,3′:9,10][1,6]oxazacycloundecino[8,7,6-hi]indole-8-carboxylic acid-N-ethylethanamine Salt (Enantiomer 1)]		> 20			4.91		> 3.3e-05 M and 2.08e-05 M	
COCc1nn(C)c2c1-c1cccc3c(CCCOc4cccc5ccccc45)c(C(=O)O)n(c13)CCCN(C)C2 (single isomer, unassigned; enantiomer 2) [Example 1-104, 11-(methoxymethyl)-7,9-dimethyl-1-[3-(1-naphthyloxy)propyl]-4,5,6,7,8,9-hexahydropyrazolo[3′,4′:7,8][1,5]diazecino[9,10,1-hi]indole-2-carboxylic Acid (Enantiomer 2)]		> 20			8.64			4.44e-06
